These results are taken from ChEMBL document CHEMBL5107965, “The progress of small-molecules and degraders against BCR-ABL for the treatment of CML” (Eur J Med Chem, 2022).

In brackets after ≈: the same amount, converted by molar mass.

Data set [1] has as its target Platelet-derived growth factor receptor beta (Homo sapiens, UniProt P09619). The experiment in a line: Inhibition of PDGFRbeta (unknown origin).
The target in data set [2] is Mast/stem cell growth factor receptor Kit (Homo sapiens, UniProt P10721). The experiment in a line: Inhibition of c-Kit (unknown origin).
Chain of Mast/stem cell growth factor receptor Kit (P10721 whole entry): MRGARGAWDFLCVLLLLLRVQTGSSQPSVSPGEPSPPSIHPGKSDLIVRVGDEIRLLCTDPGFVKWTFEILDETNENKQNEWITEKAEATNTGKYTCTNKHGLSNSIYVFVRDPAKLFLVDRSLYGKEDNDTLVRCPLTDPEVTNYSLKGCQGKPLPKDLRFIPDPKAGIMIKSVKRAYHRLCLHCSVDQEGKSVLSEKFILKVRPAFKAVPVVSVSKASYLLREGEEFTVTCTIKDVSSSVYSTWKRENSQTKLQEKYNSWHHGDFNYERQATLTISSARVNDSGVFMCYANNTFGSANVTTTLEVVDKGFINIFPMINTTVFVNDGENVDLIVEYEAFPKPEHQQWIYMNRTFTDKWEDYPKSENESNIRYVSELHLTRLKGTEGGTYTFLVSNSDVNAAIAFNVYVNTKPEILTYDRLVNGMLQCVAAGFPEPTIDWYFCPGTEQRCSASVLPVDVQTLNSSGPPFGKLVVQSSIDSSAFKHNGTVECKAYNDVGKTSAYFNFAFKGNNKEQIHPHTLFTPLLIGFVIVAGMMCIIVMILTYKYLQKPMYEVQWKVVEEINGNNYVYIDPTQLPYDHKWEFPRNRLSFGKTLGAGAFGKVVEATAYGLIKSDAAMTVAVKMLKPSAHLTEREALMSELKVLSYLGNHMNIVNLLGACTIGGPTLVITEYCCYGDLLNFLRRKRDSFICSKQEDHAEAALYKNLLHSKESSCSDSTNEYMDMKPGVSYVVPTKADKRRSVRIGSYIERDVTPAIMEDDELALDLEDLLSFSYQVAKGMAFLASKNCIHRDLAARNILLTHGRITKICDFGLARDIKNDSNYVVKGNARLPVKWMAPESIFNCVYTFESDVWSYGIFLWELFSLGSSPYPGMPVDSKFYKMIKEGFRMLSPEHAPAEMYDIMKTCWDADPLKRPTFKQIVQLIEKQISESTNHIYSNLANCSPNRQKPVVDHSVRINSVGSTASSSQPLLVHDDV
Data set [3] has as its system K562. The experiment in a line: Antiproliferative activity against imatinib resistant human K562 cells assessed as cell growth inhibition measured after 48 to 72 hrs by MTS assay. It is filed as functional, cell-based.
Data set [4] relates to K562. The experiment in a line: Antiproliferative activity against imatinib resistant human K562 cells harbouring wild type ABL assessed as cell growth inhibition by XTT assay. The class given is functional.
For data set [5], the system named is K562. The experiment in a line: Antiproliferative activity against imatinib resistant human K562 cells harbouring ABL-T315I mutant assessed as cell growth inhibition by XTT assay. The class given is functional.
In data set [6] the test system is K562. Nature of the data set: Antiproliferative activity against human K562 cells assessed as cell growth inhibition. The class given is functional, cell-based.
Data set [7] deals with T1, Bcr/Abl fusion protein (Homo sapiens, UniProt P00519). Nature of the data set: Inhibition of BCR-ABL (unknown origin). The class given is protein assay.
The nature of data set [8]: Inhibition of Abl […] mutant (unknown origin). Also on record: species or system Homo sapiens.
For the next data set, the system named is BaF3. The experiment in a line: cells. The note with it: Mus musculus.
Data set [9] deals with K562. The experiment in a line: Cytotoxicity against human K562 cells assessed as cell growth inhibition measured after 72 hrs by MTT assay. It is filed as functional, cell-based. To be noted: K562, 72 h.
Data set [10] deals with BCR/ABL1 (Mus musculus, UniProt P00520, E255V). The experiment in a line: Inhibition of BCR-ABL E255V mutant phosphorylation in mouse BaF3 cells incubated for 4 hrs by immunoblotting analysis. The class given is cell-based.
Chain of BCR/ABL1 (Mus musculus, UniProt P00520, E255V) (P00520 whole entry E255V, looked up): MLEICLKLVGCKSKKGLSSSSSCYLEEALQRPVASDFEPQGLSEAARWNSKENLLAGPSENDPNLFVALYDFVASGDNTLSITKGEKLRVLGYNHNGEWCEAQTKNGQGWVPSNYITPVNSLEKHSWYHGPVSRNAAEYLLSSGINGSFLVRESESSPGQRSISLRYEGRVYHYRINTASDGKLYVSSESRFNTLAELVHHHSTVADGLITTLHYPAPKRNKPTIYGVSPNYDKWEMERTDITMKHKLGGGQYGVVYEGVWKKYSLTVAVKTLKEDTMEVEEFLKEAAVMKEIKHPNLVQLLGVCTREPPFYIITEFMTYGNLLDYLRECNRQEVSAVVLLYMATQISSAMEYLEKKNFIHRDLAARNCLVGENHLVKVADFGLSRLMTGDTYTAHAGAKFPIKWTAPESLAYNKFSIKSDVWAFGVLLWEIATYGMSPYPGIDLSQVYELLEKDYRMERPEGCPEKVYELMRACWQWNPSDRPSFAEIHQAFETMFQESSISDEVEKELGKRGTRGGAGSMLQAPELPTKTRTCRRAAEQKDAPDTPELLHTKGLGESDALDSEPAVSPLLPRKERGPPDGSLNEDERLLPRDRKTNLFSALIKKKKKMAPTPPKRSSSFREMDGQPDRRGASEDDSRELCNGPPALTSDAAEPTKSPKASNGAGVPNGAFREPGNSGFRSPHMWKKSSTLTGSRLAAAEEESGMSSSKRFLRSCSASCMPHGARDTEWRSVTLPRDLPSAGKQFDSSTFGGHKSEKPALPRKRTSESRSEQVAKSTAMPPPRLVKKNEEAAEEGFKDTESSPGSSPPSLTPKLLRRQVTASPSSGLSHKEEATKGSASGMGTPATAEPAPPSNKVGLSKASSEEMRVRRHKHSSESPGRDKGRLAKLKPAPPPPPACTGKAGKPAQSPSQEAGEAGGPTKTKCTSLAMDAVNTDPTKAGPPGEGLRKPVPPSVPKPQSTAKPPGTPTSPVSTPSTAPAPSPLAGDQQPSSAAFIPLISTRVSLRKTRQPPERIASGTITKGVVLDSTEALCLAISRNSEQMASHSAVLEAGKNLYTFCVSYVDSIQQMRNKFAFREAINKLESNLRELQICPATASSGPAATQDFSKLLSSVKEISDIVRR
Data set [11] can be described thus: Plasma concentration in mouse at 30 mg/kg, measured after 1 hr. It is filed as ADME, organism-based.
For data set [12], the target named is T1, Bcr/Abl fusion protein. Nature of the data set: Inhibition of wild type BCR-ABL phosphorylation in mouse BaF3 cells incubated for 4 hrs by immunoblotting analysis. The class given is cell-based.
Data set [13] is described as follows: Ratio of drug concentration in brain to plasma of mouse at 30 mg/kg, measured after 1 hr. The note with it: read-out: BPR. It is filed as ADME, organism-based.
Data set [14] in a line: Drug concentration in brain of mouse at 30 mg/kg, measured after 1 hr. The class given is ADME, organism-based. The note with it: read-out: Ct.
The nature of data set [15]: Inhibition of BCR-ABL L248R mutant phosphorylation in mouse BaF3 cells incubated for 4 hrs by immunoblotting analysis. It is filed as cell-based. To be noted: BaF3, 4 h.
Data set [16] in a line: Inhibition of BCR-ABL Y253H mutant phosphorylation in mouse BaF3 cells incubated for 4 hrs by immunoblotting analysis. The class given is cell-based. To be noted: BaF3, 4 h.
The target in data set [17] is BCR/ABL1 (Mus musculus, UniProt P00520, T315I). Nature of the data set: Inhibition of BCR-ABL T315I mutant phosphorylation in mouse BaF3 cells incubated for 4 hrs by immunoblotting analysis. It is filed as cell-based.
Chain of BCR/ABL1 (Mus musculus, UniProt P00520, T315I) (P00520 whole entry T315I, looked up): as the sequence (P00520 whole entry E255V, looked up) above, with V255E, T315I counted along it
Data set [18] has as its target Tyrosine-protein kinase ABL1 (Homo sapiens, UniProt P00519, T315I). The experiment in a line: Inhibition of Abl T315I mutant (unknown origin).
A further data set addresses T2, Aurora kinase A (Homo sapiens, UniProt O14965).
T2 sequence (O14965 whole entry): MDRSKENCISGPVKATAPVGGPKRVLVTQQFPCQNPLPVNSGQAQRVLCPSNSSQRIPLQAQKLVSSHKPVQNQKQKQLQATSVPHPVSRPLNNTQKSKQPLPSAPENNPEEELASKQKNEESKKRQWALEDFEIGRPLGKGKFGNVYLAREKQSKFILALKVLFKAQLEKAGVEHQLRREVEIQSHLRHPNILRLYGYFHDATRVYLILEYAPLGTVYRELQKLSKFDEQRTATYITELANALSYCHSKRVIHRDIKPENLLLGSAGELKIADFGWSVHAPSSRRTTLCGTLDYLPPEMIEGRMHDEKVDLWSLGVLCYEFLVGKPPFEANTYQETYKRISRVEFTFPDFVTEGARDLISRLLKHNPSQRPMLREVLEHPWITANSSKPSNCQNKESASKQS
Nature of the data set: Inhibition of Aurora A (unknown origin).

The test system of data set [19] is K562. The experiment in a line: Antiproliferative activity against imatinib resistant human K562 cells expressing BCR-ABL assessed as cell growth inhibition. The class given is functional, cell-based.
Data set [20] deals with Tyrosine-protein kinase ABL1 (Homo sapiens, UniProt P00519).
Description: Inhibition of wild type Abl (unknown origin)
In data set [21] the test system is K562. The experiment in a line: Antiproliferative activity against imatinib resistant human K562 cells expressing STAT5 assessed as cell growth inhibition. It is filed as functional, cell-based.

Chain of Platelet-derived growth factor receptor beta (P09619 whole entry): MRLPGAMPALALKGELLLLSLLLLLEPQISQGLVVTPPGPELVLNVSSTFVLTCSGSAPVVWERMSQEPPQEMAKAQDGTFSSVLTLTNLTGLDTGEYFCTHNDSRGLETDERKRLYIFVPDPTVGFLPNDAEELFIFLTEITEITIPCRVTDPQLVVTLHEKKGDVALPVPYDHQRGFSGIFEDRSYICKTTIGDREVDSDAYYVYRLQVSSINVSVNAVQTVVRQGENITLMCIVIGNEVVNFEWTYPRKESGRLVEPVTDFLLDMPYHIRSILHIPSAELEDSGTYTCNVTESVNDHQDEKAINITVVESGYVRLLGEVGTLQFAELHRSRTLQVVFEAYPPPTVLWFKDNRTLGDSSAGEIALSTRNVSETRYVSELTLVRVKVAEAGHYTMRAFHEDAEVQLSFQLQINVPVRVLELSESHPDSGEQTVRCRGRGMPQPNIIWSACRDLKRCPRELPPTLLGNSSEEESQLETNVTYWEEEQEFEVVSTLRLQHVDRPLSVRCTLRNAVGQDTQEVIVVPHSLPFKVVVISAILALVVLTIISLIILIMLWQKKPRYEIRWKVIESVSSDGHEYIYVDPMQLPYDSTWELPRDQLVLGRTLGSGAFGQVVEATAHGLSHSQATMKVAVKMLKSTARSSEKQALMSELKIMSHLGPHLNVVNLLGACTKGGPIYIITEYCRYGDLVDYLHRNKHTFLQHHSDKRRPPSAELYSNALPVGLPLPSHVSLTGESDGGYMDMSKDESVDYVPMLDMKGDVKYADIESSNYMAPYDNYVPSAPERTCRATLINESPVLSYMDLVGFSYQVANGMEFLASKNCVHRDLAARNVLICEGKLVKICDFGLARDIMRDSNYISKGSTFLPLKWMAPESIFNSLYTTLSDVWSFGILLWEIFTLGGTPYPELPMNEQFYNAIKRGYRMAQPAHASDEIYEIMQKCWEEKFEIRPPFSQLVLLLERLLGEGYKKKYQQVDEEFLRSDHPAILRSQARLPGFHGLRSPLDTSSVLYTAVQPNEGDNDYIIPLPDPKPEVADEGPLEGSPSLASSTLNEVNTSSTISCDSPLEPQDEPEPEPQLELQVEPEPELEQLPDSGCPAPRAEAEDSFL

Take `Cc1ncc(NC(=O)c2ccc(CN3CCN(C)CC3)c(C(F)(F)F)c2)cc1Nc1nccc(-c2cccnc2)n1` [FLUMATINIB]: the results for the half-inhibitory concentration (IC50) in data set [1] and in data set [2] were 308 nM and 666 nM, respectively.
With `CC(C)=CCC[C@]1(C)C=Cc2c(O)c3c(c(CC=C(C)C)c2O1)O[C@]12C(=C[C@@H]4C[C@H]1C(C)(C)O[C@@]2(C/C=C(/C)C(=O)O)C4=O)C3=O` [GAMBOGIC ACID], in the data set on K562 [3], the IC50 worked out at 620 nM.
As to `O=C(c1ccc(/C=C/c2n[nH]c3ccccc23)cc1)N1CCNCC1` [KW-2449], the GI50 in the data set on K562 [4] and in the data set with K562 [5] was 270 nM in each case.
Turning to `COC(=O)C[C@](O)(CCCC(C)(C)O)C(=O)O[C@@H]1C(OC)=C[C@]23CCCN2CCc2cc4c(cc2[C@H]13)OCO4` [OMACETAXINE MEPESUCCINATE], the IC50 with K562 [6] came to 0.0439 µg/mL (≈ 0.0804 µM).
For `Cc1cn(-c2cc(NC(=O)c3ccc(C)c(Nc4nccc(-c5cnccn5)n4)c3)cc(C(F)(F)F)c2)cn1` [RADOTINIB], the IC50 at Bcr/Abl fusion protein [7] was determined as 1.2 nM.
In data set [8], `CNC(=O)c1cc(Oc2ccc(NC(=O)Nc3cc(C(C)(C)C)nn3-c3ccc4ncccc4c3)c(F)c2)ccn1` [REBASTINIB] came in with an IC50 of 1.4 nM.
For `Cc1cc(Nc2cc(N3CCN(C)CC3)nc(Sc3ccc(NC(=O)C4CC4)cc3)n2)n[nH]1` [TOZASERTIB], 100 nM corresponded to half-maximal inhibition with BaF3 (IC50).
In the case of `Cc1ccc(C(=O)Nc2ccc(CN3CCN(C)CC3)c(C(F)(F)F)c2)cc1C#Cc1nnc2ccccn12` [VAMOTINIB], the IC50 in the data set with K562 [9] was 1 nM.
For the molecule `Cc1ccc(C(=O)NNC(=O)c2c(C)cccc2Cl)cc1C#Cc1cnc2ccccc2c1` [VODOBATINIB], the IC50 against BCR/ABL1 [10] came out at 165 nM; at Bcr/Abl fusion protein [12] it was 0.9 nM; in data set [15], 167 nM; in [16], 154 nM; on BCR/ABL1 [17], 1970 nM. The concentration at 1 h in [11] was 4800 ng/mL; in data set [14] it was 1900 ng/g. Moreover, the Kp at 1 h in [13] was 0.4.
Consider `CC(C)c1cc(CNc2nc(Nc3cc(C4CC4)[nH]n3)cc(N3CCN(C)CC3)n2)on1` [XL-228], for which the concentration for half-maximal inhibition (IC50) in data set [18] turned out to be 14 nM; against Aurora kinase A, 3.1 nM; with K562 [19], 33 nM; in [20], 5 nM; in the data set with K562 [21], 43 nM.
